The source of these data is patent publication EP0851902B1, “METHOD FOR COATING” (F2 Chemicals Ltd., priority 1995, dated 1997).

This data set in a line: Water solubility (typical physical properties, Table 1). The class given is physicochemical. The following applies: components of the 2% w/w solution of resin in perfluorohexane. Here is the method:
A solution of a fluoropolymer resin, prepared in accordance with details given in PCT Patent Application No. WO 94/05498 (and documents referred to therein), was prepared by dissolving sufficient of it, at room temperature in perfluorohexane ("FLUTEC" PP-1 from BNFL Fluorochemicals Ltd) to make a 2% w/w solution.

Take `FC(F)(F)C(F)(F)C(F)(F)C(F)(F)C(F)(F)C(F)(F)F` [SOLVENT, perfluorohexane]: the “Water Solubility” value was “Insoluble”.
